Experimental data as given in PubChem BioAssay (NCI).
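A five-concentration, 48-hour dose response in 96-well plates underlies each endpoint, interpolated linearly between surrounding concentrations. At the GI50, growth is halved. TGI denotes the concentration required for complete inhibition of growth.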

Tests used:
Test in all cases: NCI tumour cell line growth inhibition, 48 h
786-0 renal = test system: 786-0 renal
A498 renal = test system: A498 renal
A549 NSCLC = test system: A549 NSCLC
ACHN renal = test system: ACHN renal
CAKI-1 renal = test system: CAKI-1 renal
CCRF-CEM leukemia = test system: CCRF-CEM leukemia
COLO 205 colon = test system: COLO 205 colon
DLD-1 colon = test system: DLD-1 colon
DMS 114 small cell lung = test system: DMS 114 small cell lung
DMS 273 small cell lung = test system: DMS 273 small cell lung
EKVX NSCLC = test system: EKVX NSCLC
HCC-2998 colon = test system: HCC-2998 colon
HCT-116 colon = test system: HCT-116 colon
HCT-15 colon = test system: HCT-15 colon
HL-60(TB) leukemia = test system: HL-60(TB) leukemia
HOP-18 NSCLC = test system: HOP-18 NSCLC
HOP-62 NSCLC = test system: HOP-62 NSCLC
HOP-92 NSCLC = test system: HOP-92 NSCLC
HT29 colon = test system: HT29 colon
IGROV1 ovarian = test system: IGROV1 ovarian
K-562 leukemia = test system: K-562 leukemia
KM12 colon = test system: KM12 colon
KM20L2 colon = test system: KM20L2 colon
LOX IMVI melanoma = test system: LOX IMVI melanoma
LXFL 529 NSCLC = test system: LXFL 529 NSCLC
M14 melanoma = test system: M14 melanoma
M19-MEL melanoma = test system: M19-MEL melanoma
MALME-3M melanoma = test system: MALME-3M melanoma
MOLT-4 leukemia = test system: MOLT-4 leukemia
NCI-H226 lung = test system: NCI-H226 lung
NCI-H23 lung = test system: NCI-H23 lung
NCI-H460 lung = test system: NCI-H460 lung
NCI-H522 lung = test system: NCI-H522 lung
OVCAR-3 ovarian = test system: OVCAR-3 ovarian
OVCAR-4 ovarian = test system: OVCAR-4 ovarian
OVCAR-5 ovarian = test system: OVCAR-5 ovarian
OVCAR-8 ovarian = test system: OVCAR-8 ovarian
RPMI-8226 leukemia = test system: RPMI-8226 leukemia
RXF 393 renal = test system: RXF 393 renal
RXF-631 renal = test system: RXF-631 renal
SF-268 CNS = test system: SF-268 CNS
SF-295 CNS = test system: SF-295 CNS
SF-539 CNS = test system: SF-539 CNS
SK-MEL-2 melanoma = test system: SK-MEL-2 melanoma
SK-MEL-28 melanoma = test system: SK-MEL-28 melanoma
SK-MEL-5 melanoma = test system: SK-MEL-5 melanoma
SK-OV-3 ovarian = test system: SK-OV-3 ovarian
SN12C renal = test system: SN12C renal
SNB-19 CNS = test system: SNB-19 CNS
SNB-75 CNS = test system: SNB-75 CNS
SNB-78 CNS = test system: SNB-78 CNS
SR leukemia = test system: SR leukemia
SW-620 colon = test system: SW-620 colon
TK-10 renal = test system: TK-10 renal
U251 CNS = test system: U251 CNS
UACC-257 melanoma = test system: UACC-257 melanoma
UACC-62 melanoma = test system: UACC-62 melanoma
UO-31 renal = test system: UO-31 renal
XF 498 CNS = test system: XF 498 CNS
BT-549 breast = test system: BT-549 breast
DU-145 prostate = test system: DU-145 prostate
HS 578T breast = test system: HS 578T breast
MCF7 breast = test system: MCF7 breast
MDA-MB-231 breast = test system: MDA-MB-231 breast
MDA-MB-435 = test system: MDA-MB-435
NCI/ADR-RES ovarian = test system: NCI/ADR-RES ovarian
PC-3 prostate = test system: PC-3 prostate
T-47D breast = test system: T-47D breast

SMILES: CCCCCCCCCCCCC(CC)CCCCC(=O)O (stereo unspecified)
- TGI (786-0 renal): > 100 µM
- TGI (A498 renal): > 100 µM
- TGI (A549 NSCLC): > 100 µM
- TGI (ACHN renal): > 100 µM
- TGI (CAKI-1 renal): > 100 µM
- TGI (CCRF-CEM leukemia): 67.6 µM
- TGI (COLO 205 colon): > 100 µM
- TGI (DLD-1 colon): > 100 µM
- TGI (DMS 114 small cell lung): > 100 µM
- TGI (DMS 273 small cell lung): > 100 µM
- TGI (EKVX NSCLC): > 100 µM
- TGI (HCC-2998 colon): > 100 µM
- TGI (HCT-116 colon): > 100 µM
- TGI (HCT-15 colon): > 100 µM
- TGI (HL-60(TB) leukemia): > 90.4 µM
- TGI (HOP-18 NSCLC): > 100 µM
- TGI (HOP-62 NSCLC): > 100 µM
- TGI (HOP-92 NSCLC): > 100 µM
- TGI (HT29 colon): > 100 µM
- TGI (IGROV1 ovarian): > 100 µM
- TGI (K-562 leukemia): > 100 µM
- TGI (KM12 colon): > 100 µM
- TGI (KM20L2 colon): > 100 µM
- TGI (LOX IMVI melanoma): > 100 µM
- TGI (LXFL 529 NSCLC): > 100 µM
- TGI (M14 melanoma): > 100 µM
- TGI (M19-MEL melanoma): > 100 µM
- TGI (MALME-3M melanoma): > 100 µM
- TGI (MOLT-4 leukemia): 69.7 µM
- TGI (NCI-H226 lung): > 100 µM
- TGI (NCI-H23 lung): > 100 µM
- TGI (NCI-H460 lung): > 100 µM
- TGI (NCI-H522 lung): > 100 µM
- TGI (OVCAR-3 ovarian): > 100 µM
- TGI (OVCAR-4 ovarian): > 100 µM
- TGI (OVCAR-5 ovarian): > 100 µM
- TGI (OVCAR-8 ovarian): > 100 µM
- TGI (RPMI-8226 leukemia): > 100 µM
- TGI (RXF 393 renal): > 86.8 µM
- TGI (RXF-631 renal): > 100 µM
- TGI (SF-268 CNS): > 100 µM
- TGI (SF-295 CNS): > 100 µM
- TGI (SF-539 CNS): > 59.2 µM
- TGI (SK-MEL-2 melanoma): > 100 µM
- TGI (SK-MEL-28 melanoma): > 100 µM
- TGI (SK-MEL-5 melanoma): > 100 µM
- TGI (SK-OV-3 ovarian): > 100 µM
- TGI (SN12C renal): > 100 µM
- TGI (SNB-19 CNS): > 100 µM
- TGI (SNB-75 CNS): > 100 µM
- TGI (SNB-78 CNS): > 100 µM
- TGI (SR leukemia): > 100 µM
- TGI (SW-620 colon): > 100 µM
- TGI (TK-10 renal): > 100 µM
- TGI (U251 CNS): > 67.8 µM
- TGI (UACC-257 melanoma): > 100 µM
- TGI (UACC-62 melanoma): > 100 µM
- TGI (UO-31 renal): > 100 µM
- TGI (XF 498 CNS): > 100 µM

SMILES: Oc1ccc2c(c1)OCC1(O)Cc3cc(O)c(O)cc3C21 (stereo unspecified)
- TGI (786-0 renal): 34.9 µM
- TGI (A498 renal): 39 µM
- TGI (A549 NSCLC): > 74.6 µM
- TGI (ACHN renal): 32.7 µM
- GI50 (BT-549 breast): 14.8 µM
- TGI (BT-549 breast): 28 µM
- TGI (CAKI-1 renal): 32.8 µM
- TGI (CCRF-CEM leukemia): 82.8 µM
- TGI (COLO 205 colon): 45.4 µM
- TGI (DLD-1 colon): 33.9 µM
- TGI (DMS 114 small cell lung): 73.5 µM
- TGI (DMS 273 small cell lung): > 100 µM
- GI50 (DU-145 prostate): 10.7 µM
- TGI (DU-145 prostate): 22.5 µM
- TGI (EKVX NSCLC): 45.9 µM
- TGI (HCC-2998 colon): 36 µM
- TGI (HCT-116 colon): 42.4 µM
- TGI (HCT-15 colon): 44.2 µM
- TGI (HL-60(TB) leukemia): 78.3 µM
- TGI (HOP-18 NSCLC): 32.3 µM
- TGI (HOP-62 NSCLC): > 73.6 µM
- TGI (HOP-92 NSCLC): 37.6 µM
- GI50 (HS 578T breast): 20.4 µM
- TGI (HS 578T breast): 46.9 µM
- TGI (HT29 colon): 46.5 µM
- TGI (IGROV1 ovarian): > 73.6 µM
- TGI (K-562 leukemia): > 82.6 µM
- TGI (KM12 colon): 69.2 µM
- TGI (KM20L2 colon): > 63 µM
- TGI (LOX IMVI melanoma): 37.2 µM
- TGI (LXFL 529 NSCLC): 34 µM
- TGI (M14 melanoma): 36.2 µM
- TGI (M19-MEL melanoma): > 86 µM
- TGI (MALME-3M melanoma): 32.4 µM
- GI50 (MCF7 breast): 18.4 µM
- TGI (MCF7 breast): 36 µM
- GI50 (MDA-MB-231 breast): 13 µM
- TGI (MDA-MB-231 breast): 26 µM
- GI50 (MDA-MB-435): 14.8 µM
- TGI (MDA-MB-435): 28.1 µM
- TGI (MOLT-4 leukemia): 72.9 µM
- TGI (NCI-H226 lung): > 65.2 µM
- TGI (NCI-H23 lung): 33.4 µM
- TGI (NCI-H460 lung): 37.2 µM
- TGI (NCI-H522 lung): 46.7 µM
- GI50 (NCI/ADR-RES ovarian): 29.6 µM
- TGI (NCI/ADR-RES ovarian): 97.9 µM
- TGI (OVCAR-3 ovarian): 30 µM
- TGI (OVCAR-4 ovarian): 35.3 µM
- TGI (OVCAR-5 ovarian): 59.7 µM
- TGI (OVCAR-8 ovarian): 44.2 µM
- GI50 (PC-3 prostate): 18.1 µM
- TGI (PC-3 prostate): 39.4 µM
- TGI (RPMI-8226 leukemia): 85.1 µM
- TGI (RXF 393 renal): 29.7 µM
- TGI (RXF-631 renal): > 77.3 µM
- TGI (SF-268 CNS): > 68.2 µM
- TGI (SF-295 CNS): > 68.3 µM
- TGI (SF-539 CNS): 36.8 µM
- TGI (SK-MEL-2 melanoma): 62.2 µM
- TGI (SK-MEL-28 melanoma): 32.2 µM
- TGI (SK-MEL-5 melanoma): 34.2 µM
- TGI (SK-OV-3 ovarian): > 79.5 µM
- TGI (SN12C renal): 51.1 µM
- TGI (SNB-19 CNS): 73 µM
- TGI (SNB-75 CNS): 67.8 µM
- TGI (SNB-78 CNS): 20 µM
- TGI (SR leukemia): 99.3 µM
- TGI (SW-620 colon): 40.5 µM
- GI50 (T-47D breast): 19.6 µM
- TGI (T-47D breast): 54.4 µM
- TGI (TK-10 renal): 31.2 µM
- TGI (U251 CNS): 39.9 µM
- TGI (UACC-257 melanoma): 34.4 µM
- TGI (UACC-62 melanoma): 41.9 µM
- TGI (UO-31 renal): > 100 µM
- TGI (XF 498 CNS): 28.8 µM
